How the values were obtained:
[1] = system: barnyard grass; assay: Test Example 5: herbicidal effect by foliage application, plastic box (Table 20, symbol H); type: in vivo, barnyard grass (Echinochloa crus-galli); settings: foliage application, 320 g/ha, three weeks after application
Procedure, shortened: (§1)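 Plants were sown into sterilized diluvial soil under about 1.5 cm cover and kept in a greenhouse at 25° C. to 30° C. Fourteen days on, foliage received an even spray of the diluted emulsion. Herbicidal or crop effect was judged three weeks afterwards.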

[2] = system: blackgrass; assay: Test Example 5: herbicidal effect by foliage application, plastic box (Table 20, symbol J); type: in vivo, blackgrass (Alopecurus myosuroides); settings: foliage application, 320 g/ha, three weeks after application
Procedure, shortened: as §1

[3] = system: green foxtail; assay: Test Example 4: herbicidal effect by soil treatment (Table 19, symbol G); type: in vivo, green foxtail (Setaria viridis); settings: amount of applied herbicide 320 g/ha
Procedure, shortened: (§2)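 Pre-emergence style soil spray: seeds under ~1.5 cm sterilized diluvial soil received a uniform coat of emulsion diluted to the predetermined herbicide amount. Greenhouse 25–30° C; readout at week three on previously defined criteria.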

[4] = system: Chinese sprangletop; assay: Test Example 3: herbicidal effect by foliage application, Wagner pot (Table 18, symbol D); type: in vivo, chinese sprangletop (Leptochloa chinensis); settings: 320 g/ha
Procedure, shortened: (§3)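 Plants were sown in alluvial soil held under 0.1–0.5 cm standing water and grown 14 days in a greenhouse at 25–30 °C. An emulsifiable formulation, water-diluted to the set dose, was then sprayed onto the foliage, and effects were scored three weeks later using previously defined criteria.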

[5] = system: southern crabgrass; assay: Test Example 5: herbicidal effect by foliage application, plastic box (Table 20, symbol F); type: in vivo, southern crabgrass (Digitaria ciliaris); settings: foliage application, 320 g/ha, three weeks after application
Procedure, shortened: as §1

[6] = system: lambsquarters; assay: Test Example 4: herbicidal effect by soil treatment (Table 19, symbol O); type: in vivo, lambsquarters (Chenopodium album); settings: amount of applied herbicide 320 g/ha
Procedure, shortened: as §2

[7] = system: oval-leafed pondweed; assay: Test Example 1: herbicidal activity, application before weed generation under submerged conditions (Table 16, symbol C); type: in vivo, oval-leafed pondweed (Monochoria vaginalis); settings: 320 g/ha applied herbicide
Procedure, shortened: (§4)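 Emulsion formulation, water-diluted to set dose, was put onto the flooded surface (4 cm depth, alluvial soil) the same day weeds were sown and 2.5-leaf rice transplanted. After 3 weeks at 25-30 °C under glass, each species was rated 0 (≤5% kill) to 5 (≥90% kill).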

[8] = system: green foxtail; assay: Test Example 5: herbicidal effect by foliage application, plastic box (Table 20, symbol G); type: in vivo, green foxtail (Setaria viridis); settings: foliage application, 320 g/ha, three weeks after application
Procedure, shortened: as §1

[9] = system: windgrass; assay: Test Example 4: herbicidal effect by soil treatment (Table 19, symbol L); type: in vivo, windgrass (Apera spica-venti); settings: amount of applied herbicide 320 g/ha
Procedure, shortened: as §2

[10] = system: windgrass; assay: Test Example 5: herbicidal effect by foliage application, plastic box (Table 20, symbol L); type: in vivo, windgrass (Apera spica-venti); settings: foliage application, 320 g/ha, three weeks after application
Procedure, shortened: as §1

[11] = system: false cleavers; assay: Test Example 4: herbicidal effect by soil treatment (Table 19, symbol Q); type: in vivo, false cleavers (Galium spurium); settings: amount of applied herbicide 320 g/ha
Procedure, shortened: as §2

[12] = system: barnyard grass; assay: Test Example 4: herbicidal effect by soil treatment (Table 19, symbol H); type: in vivo, barnyard grass (Echinochloa crus-galli); settings: amount of applied herbicide 320 g/ha
Procedure, shortened: as §2

[13] = system: redroot pigweed; assay: Test Example 5: herbicidal effect by foliage application, plastic box (Table 20, symbol N); type: in vivo, redroot pigweed (Amaranthus retroflexus); settings: foliage application, 320 g/ha, three weeks after application
Procedure, shortened: as §1

[14] = system: blackgrass; assay: Test Example 4: herbicidal effect by soil treatment (Table 19, symbol J); type: in vivo, blackgrass (Alopecurus myosuroides); settings: amount of applied herbicide 320 g/ha
Procedure, shortened: as §2

[15] = system: chickweed; assay: Test Example 5: herbicidal effect by foliage application, plastic box (Table 20, symbol P); type: in vivo, common chickweed (Stellaria media); settings: foliage application, 320 g/ha, three weeks after application
Procedure, shortened: as §1

[16] = system: false cleavers; assay: Test Example 5: herbicidal effect by foliage application, plastic box (Table 20, symbol Q); type: in vivo, false cleavers (Galium spurium); settings: foliage application, 320 g/ha, three weeks after application
Procedure, shortened: as §1

[17] = system: wild oat; assay: Test Example 5: herbicidal effect by foliage application, plastic box (Table 20, symbol I); type: in vivo, wild oat (Avena fatua); settings: foliage application, 320 g/ha, three weeks after application
Procedure, shortened: as §1

[18] = system: chickweed; assay: Test Example 4: herbicidal effect by soil treatment (Table 19, symbol P); type: in vivo, common chickweed (Stellaria media); settings: amount of applied herbicide 320 g/ha
Procedure, shortened: as §2

[19] = system: Italian ryegrass; assay: Test Example 4: herbicidal effect by soil treatment (Table 19, symbol K); type: in vivo, Italian ryegrass (Lolium multiflorum); settings: amount of applied herbicide 320 g/ha
Procedure, shortened: as §2

[20] = system: redroot pigweed; assay: Test Example 4: herbicidal effect by soil treatment (Table 19, symbol N); type: in vivo, redroot pigweed (Amaranthus retroflexus); settings: amount of applied herbicide 320 g/ha
Procedure, shortened: as §2

[21] = system: wild oat; assay: Test Example 4: herbicidal effect by soil treatment (Table 19, symbol I); type: in vivo, wild oat (Avena fatua); settings: amount of applied herbicide 320 g/ha
Procedure, shortened: as §2

[22] = system: persian speedwell; assay: Test Example 5: herbicidal effect by foliage application, plastic box (Table 20, symbol R); type: in vivo, Persian speedwell (Veronica persica); settings: foliage application, 320 g/ha, three weeks after application
Procedure, shortened: as §1

[23] = system: persian speedwell; assay: Test Example 4: herbicidal effect by soil treatment (Table 19, symbol R); type: in vivo, Persian speedwell (Veronica persica); settings: amount of applied herbicide 320 g/ha
Procedure, shortened: as §2

[24] = system: Italian ryegrass; assay: Test Example 5: herbicidal effect by foliage application, plastic box (Table 20, symbol K); type: in vivo, Italian ryegrass (Lolium multiflorum); settings: foliage application, 320 g/ha, three weeks after application
Procedure, shortened: as §1

[25] = system: Japanese bulrush; assay: Test Example 1: herbicidal activity, application before weed generation under submerged conditions (Table 16, symbol B); type: in vivo, Japanese bulrush (Schoenoplectus juncoides); settings: 320 g/ha applied herbicide
Procedure, shortened: as §4

[26] = system: lambsquarters; assay: Test Example 5: herbicidal effect by foliage application, plastic box (Table 20, symbol O); type: in vivo, lambsquarters (Chenopodium album); settings: foliage application, 320 g/ha, three weeks after application
Procedure, shortened: as §1

[27] = system: velvetleaf; assay: Test Example 4: herbicidal effect by soil treatment (Table 19, symbol M); type: in vivo, velvetleaf (Abutilon theophrasti); settings: amount of applied herbicide 320 g/ha
Procedure, shortened: as §2

[28] = system: late watergrass; assay: Test Example 1: herbicidal activity, application before weed generation under submerged conditions (Table 16, symbol A); type: in vivo, late watergrass (Echinochloa oryzicola); settings: 320 g/ha applied herbicide
Procedure, shortened: as §4

[29] = system: rice flat sedge; assay: Test Example 3: herbicidal effect by foliage application, Wagner pot (Table 18, symbol E); type: in vivo, rice flat sedge (Cyperus iria); settings: 320 g/ha
Procedure, shortened: as §3

[30] = system: barnyard grass; assay: Test Example 3: herbicidal effect by foliage application, Wagner pot (Table 18, symbol H); type: in vivo, barnyard grass (Echinochloa crus-galli); settings: 320 g/ha
Procedure, shortened: as §3

[31] = system: southern crabgrass; assay: Test Example 4: herbicidal effect by soil treatment (Table 19, symbol F); type: in vivo, southern crabgrass (Digitaria ciliaris); settings: amount of applied herbicide 320 g/ha
Procedure, shortened: as §2

[32] = system: velvetleaf; assay: Test Example 5: herbicidal effect by foliage application, plastic box (Table 20, symbol M); type: in vivo, velvetleaf (Abutilon theophrasti); settings: foliage application, 320 g/ha, three weeks after application
Procedure, shortened: as §1

| SMILES | herbicidal effect grade, H: barnyard grass [1] | herbicidal effect grade, J: blackgrass [2] | herbicidal effect rating, G: green foxtail [3] | herbicidal effect on D (Chinese sprangletop), rating 0-5 [4] | herbicidal effect grade, F: southern crabgrass [5] | herbicidal effect rating, O: lambsquarters [6] | Herbicidal effect on C: oval-leafed pondweed (grade 0-5) [7] | herbicidal effect grade, G: green foxtail [8] | herbicidal effect rating, L: windgrass [9] | herbicidal effect rating, Q: false cleavers [11] | herbicidal effect rating, H: barnyard grass [12] | herbicidal effect grade, N: redroot pigweed [13] | herbicidal effect rating, J: blackgrass [14] | herbicidal effect grade, P: chickweed [15] | herbicidal effect grade, Q: false cleavers [16] | herbicidal effect grade, I: wild oat [17] | herbicidal effect rating, P: chickweed [18] | herbicidal effect rating, K: Italian ryegrass [19] | herbicidal effect rating, N: redroot pigweed [20] | herbicidal effect rating, I: wild oat [21] | also measured |
| --- | --- | --- | --- | --- | --- | --- | --- | --- | --- | --- | --- | --- | --- | --- | --- | --- | --- | --- | --- | --- | --- |
| Cc1nn(C)c(=O)c(-c2c(-c3ccccc3OC(C)C)sc3ccccc23)c1O [1-017] | 4 (Herbicidal rate of 70% or more and less than 90%) | 4 (Herbicidal rate of 70% or more and less than 90%) | 0 (Herbicidal rate of 5% or less (almost no effect)) | 0 (Herbicidal rate of 5% or less (almost no effect)) | 3 (Herbicidal rate of 40% or more and less than 70%) | 0 (Herbicidal rate of 5% or less (almost no effect)) | 3 (Herbicidal rate of 40% or more and less than 70%) | 4 (Herbicidal rate of 70% or more and less than 90%) | 0 (Herbicidal rate of 5% or less (almost no effect)) | 0 (Herbicidal rate of 5% or less (almost no effect)) | 0 (Herbicidal rate of 5% or less (almost no effect)) | 4 (Herbicidal rate of 70% or more and less than 90%) | 2 (Herbicidal rate of 20% or more and less than 40%) | 5 (Herbicidal rate of 90% or more (almost completely withered)) | 5 (Herbicidal rate of 90% or more (almost completely withered)) | 4 (Herbicidal rate of 70% or more and less than 90%) | 4 (Herbicidal rate of 70% or more and less than 90%) | 0 (Herbicidal rate of 5% or less (almost no effect)) | 0 (Herbicidal rate of 5% or less (almost no effect)) | 1 (Herbicidal rate of 5% or more and less than 20%) | herbicidal effect grade, L: windgrass [10]: 4 (Herbicidal rate of 70% or more and less than 90%); herbicidal effect grade, R: persian speedwell [22]: 5 (Herbicidal rate of 90% or more (almost completely withered)); herbicidal effect rating, R: persian speedwell [23]: 4 (Herbicidal rate of 70% or more and less than 90%); herbicidal effect grade, K: Italian ryegrass [24]: 2 (Herbicidal rate of 20% or more and less than 40%); Herbicidal effect on B: Japanese bulrush (grade 0-5) [25]: 3 (Herbicidal rate of 40% or more and less than 70%); herbicidal effect grade, O: lambsquarters [26]: 3 (Herbicidal rate of 40% or more and less than 70%); herbicidal effect rating, M: velvetleaf [27]: 0 (Herbicidal rate of 5% or less (almost no effect)); Herbicidal effect on A: late watergrass (grade 0-5) [28]: 3 (Herbicidal rate of 40% or more and less than 70%); herbicidal effect on E (rice flat sedge), rating 0-5 [29]: 3 (Herbicidal rate of 40% or more and less than 70%); herbicidal effect on H (barnyard grass), rating 0-5 [30]: 5 (Herbicidal rate of 90% or more (almost completely withered)); herbicidal effect rating, F: southern crabgrass [31]: 0 (Herbicidal rate of 5% or less (almost no effect)); herbicidal effect grade, M: velvetleaf [32]: 4 (Herbicidal rate of 70% or more and less than 90%) |
| CCCC(=O)Oc1c(C)nn(C)c(=O)c1-c1c(-c2ccc(C(C)=O)cc2)sc2ccccc12 [1-042] | 3 (Herbicidal rate of 40% or more and less than 70%) | 0 (Herbicidal rate of 5% or less (almost no effect)) | 3 (Herbicidal rate of 40% or more and less than 70%) | 0 (Herbicidal rate of 5% or less (almost no effect)) | 3 (Herbicidal rate of 40% or more and less than 70%) | 3 (Herbicidal rate of 40% or more and less than 70%) | 3 (Herbicidal rate of 40% or more and less than 70%) | 3 (Herbicidal rate of 40% or more and less than 70%) | 0 (Herbicidal rate of 5% or less (almost no effect)) | 0 (Herbicidal rate of 5% or less (almost no effect)) | 0 (Herbicidal rate of 5% or less (almost no effect)) | 4 (Herbicidal rate of 70% or more and less than 90%) | 0 (Herbicidal rate of 5% or less (almost no effect)) | 5 (Herbicidal rate of 90% or more (almost completely withered)) | 2 (Herbicidal rate of 20% or more and less than 40%) | 0 (Herbicidal rate of 5% or less (almost no effect)) | 4 (Herbicidal rate of 70% or more and less than 90%) | 3 (Herbicidal rate of 40% or more and less than 70%) | 5 (Herbicidal rate of 90% or more (almost completely withered)) | 0 (Herbicidal rate of 5% or less (almost no effect)) | herbicidal effect grade, R: persian speedwell [22]: 5 (Herbicidal rate of 90% or more (almost completely withered)); herbicidal effect rating, R: persian speedwell [23]: 5 (Herbicidal rate of 90% or more (almost completely withered)); herbicidal effect grade, K: Italian ryegrass [24]: 4 (Herbicidal rate of 70% or more and less than 90%); Herbicidal effect on B: Japanese bulrush (grade 0-5) [25]: 4 (Herbicidal rate of 70% or more and less than 90%); herbicidal effect grade, O: lambsquarters [26]: 3 (Herbicidal rate of 40% or more and less than 70%); herbicidal effect rating, M: velvetleaf [27]: 3 (Herbicidal rate of 40% or more and less than 70%); Herbicidal effect on A: late watergrass (grade 0-5) [28]: 3 (Herbicidal rate of 40% or more and less than 70%); herbicidal effect on E (rice flat sedge), rating 0-5 [29]: 5 (Herbicidal rate of 90% or more (almost completely withered)); herbicidal effect on H (barnyard grass), rating 0-5 [30]: 3 (Herbicidal rate of 40% or more and less than 70%); herbicidal effect rating, F: southern crabgrass [31]: 2 (Herbicidal rate of 20% or more and less than 40%); herbicidal effect grade, M: velvetleaf [32]: 5 (Herbicidal rate of 90% or more (almost completely withered)) |

— US20230085307A1, “PYRIDAZINONE COMPOUND AND HERBICIDE” (NISSAN CHEMICAL CORPORATION, priority 2019, published 2023)
